Assay results as given in article PMC4404319 (ACS Chemical Neuroscience, 2015).
“Also recorded” adds a separate entry of the source.

Key:
MAO-A = molecular target: T1, MAO-A (Homo sapiens, UniProt P21397); experiment: Monoamine oxidase inhibition; conditions: 0.01–25 μM
T1 sequence (P21397 1-527): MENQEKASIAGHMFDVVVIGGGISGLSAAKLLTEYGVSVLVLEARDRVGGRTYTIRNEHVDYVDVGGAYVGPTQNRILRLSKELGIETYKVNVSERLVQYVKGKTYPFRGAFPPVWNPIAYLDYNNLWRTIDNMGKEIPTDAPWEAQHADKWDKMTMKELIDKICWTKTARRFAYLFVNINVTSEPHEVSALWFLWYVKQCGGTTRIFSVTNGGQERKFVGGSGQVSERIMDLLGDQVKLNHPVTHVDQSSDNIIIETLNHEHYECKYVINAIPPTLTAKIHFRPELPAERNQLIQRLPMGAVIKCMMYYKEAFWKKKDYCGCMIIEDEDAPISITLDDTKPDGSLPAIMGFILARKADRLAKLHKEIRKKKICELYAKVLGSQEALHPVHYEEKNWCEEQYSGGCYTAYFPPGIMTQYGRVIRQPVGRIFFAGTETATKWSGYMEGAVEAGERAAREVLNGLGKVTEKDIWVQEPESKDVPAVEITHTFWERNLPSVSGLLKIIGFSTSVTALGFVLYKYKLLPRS

BCRP = experiment: in vitro; conditions: dog
[1] = tested on: Salmonella typhimurium TA98 and TA100; experiment: Ames bacterial reverse mutation assay; conditions: ± metabolic activation, up to 5 μg/plate
in vitro = conditions: rat, liver microsomes, pH 7.4
in vivo = conditions: male, Sprague-Dawley, rat, 5 mg/kg
[2] = tested on: APP/PS1 transgenic (Tg) mouse; experiment: Behavior in APP/PS1 transgenic mice, preventative paradigm
MAO-B = molecular target: T2, MAO-B (Homo sapiens, UniProt P27338); experiment: Monoamine oxidase inhibition; conditions: 0.01–25 μM
T2 sequence (P27338 1-520): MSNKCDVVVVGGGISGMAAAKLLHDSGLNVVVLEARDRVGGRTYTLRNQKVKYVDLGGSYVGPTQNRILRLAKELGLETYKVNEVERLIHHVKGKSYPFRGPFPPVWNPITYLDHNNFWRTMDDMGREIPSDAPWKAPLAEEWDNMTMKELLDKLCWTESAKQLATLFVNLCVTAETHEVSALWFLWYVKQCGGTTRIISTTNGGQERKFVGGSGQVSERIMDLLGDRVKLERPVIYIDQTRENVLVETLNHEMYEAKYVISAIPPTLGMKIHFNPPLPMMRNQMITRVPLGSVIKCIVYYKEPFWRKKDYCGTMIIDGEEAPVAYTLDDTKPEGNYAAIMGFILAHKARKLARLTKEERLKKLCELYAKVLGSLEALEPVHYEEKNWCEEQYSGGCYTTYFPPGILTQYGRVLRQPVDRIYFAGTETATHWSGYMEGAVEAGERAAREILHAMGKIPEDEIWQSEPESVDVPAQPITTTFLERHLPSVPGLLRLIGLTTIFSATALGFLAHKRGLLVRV

Caco-2 / P-gp = experiment: Caco-2 two-way permeability / P-gp substrate; conditions: Caco-2, second of two values given 'respectively'
P-gp = experiment: in vitro; conditions: human, Caco-2
Chemical stability = assay type: physicochemical; conditions: pH 1–13, 24 h, 37 °C
C57BL/6 mice = experiment: Modified SHIRPA adverse pharmacology screen; assay type: in vivo; conditions: 50 and 150 mg/kg, 24 h observation
MDCK / BCRP = experiment: BCRP-MDCK two-way permeability / BCRP substrate
166 GPCRs = experiment: Functional GPCR agonist and antagonist screen, whole panel; assay type: cell-based; conditions: agonist 12 500 nM, antagonist 10 000 nM
[3] = 2.5 mg/kg, oral, daily, 8 weeks to 3–4 months of age

In the case of `CN1CCN(c2cc(-c3ccncc3)c(-c3ccc4ccccc4c3)nn2)CC1` [MW150, 6-(4-Methylpiperazin-1-yl)-3-(naphthalen-2-yl)-4-(pyridin-4-yl)pyridazine], the MAO-A inhibition (MAO-A) is reported as “negative”, the Papp A→B at 2 h, 5 μM (BCRP) is reported as 20.7 ×10⁻⁶ cm/s and the Papp B→A at 2 h, 5 μM (BCRP) is reported as 25.1 ×10⁻⁶ cm/s. For the same compound, the recovery (BCRP) was 66%, the AMES test [1] was “negative” and the half-life at 1 μM (in vitro) was 43 ± 4 min. For the same compound, the microsomal CLint at 1 μM (in vitro) was 20 µL/min/mg, the half-life (in vivo) was greater than 180 min and the “RAWM (spatial memory)” value [2, 3] was “improved; also recorded: suppression of the deficits”. For the same compound, the “contextual fear memory (associative memory)” value [2, 3] was “improved; also recorded: suppression of the deficits”, the “dose dependence of behavior end points” value ([2]; Figure S2) was “dose dependent” and the “performance of WT mice” value ([2]; WT littermates, 2.5 mg/kg oral daily) was “did not affect”. For the same compound, the sensory threshold ([2]; control behavior) was “No difference”, the visible platform task ([2]; control behavior) was “did not influence; also recorded: No difference” and the cued fear memory ([2]; control behavior, hippocampus-independent) was “no effect; also recorded: No difference”. For the same compound, the open field tests ([2]; control behavior, locomotor activity and anxiety) was “did not influence; also recorded: No difference”, the MAO-B inhibition (MAO-B) was “negative” and the “percent recovery, second value” (Caco-2 / P-gp) was 61%. For the same compound, the Papp A→B at 2 h, 5 μM (P-gp) was 33.5 ×10⁻⁶ cm/s, the Papp B→A at 2 h, 5 μM (P-gp) was 31.2 ×10⁻⁶ cm/s and the recovery (P-gp) was 71%. For the same compound, the chemical stability (Chemical stability) was “chemically stable; also recorded: stable at pH (1–13), 24 h, 37 °C”, the “adverse pharmacology, clinical observation” value (C57BL/6 mice) was “no differences or adverse events were detected” and the MDCK permeability classification (MDCK / BCRP) was “high cell permeability; also recorded: highly permeable”. The “percent recovery, second value” (MDCK / BCRP; MDCK, second of two values given 'respectively') was 67%, the BCRP substrate status (MDCK / BCRP; effect of 10 μM Ko143 on bidirectional flux) was “not a substrate; also recorded: not BCRP substrate” and the “functional GPCR off-target activity” value (166 GPCRs) was “no agonist or antagonist activity; also recorded: negative”.
